One may read the MIC as the smallest concentration in the dilution series that meets the test's criterion for growth inhibition.

The values that follow come from DBAASP.

Some test systems named below: Bacillus megaterium Bm11; Escherichia coli D21; Micrococcus luteus Ml11; Escherichia coli DC2; Escherichia coli D31; Escherichia coli 45849; Escherichia coli BL21AI; Streptococcus pyogenes; Proteus mirabilis; Acinetobacter baumannii; Yersinia pestis KIM pYV; Staphylococcus aureus.
Holding throughout (test): ≥ marks a high value that may be exact or a test limit, other limits are often not marked, values filed in µg/mL are converted to µM
Test [1] relates to Bacillus subtilis ATCC 6633.
Test [2] concerns Proteus vulgaris OX19 ATCC 6380.
The subject of test [3] is Staphylococcus aureus JC-1.
Test [4] deals with Shigella flexneri ATCC 203.
Test [5] deals with Pseudomonas aeruginosa OT97.
For test [6], the system named is Agrobacterium tumefaciens ATCC 15955.
For test [7], the system named is Klebsiella pneumoniae 123132.
Test [8] concerns Escherichia coli DSM 1103.
The subject of test [9] is Klebsiella pneumoniae DSM 681.
In test [10] the test system is Klebsiella pneumoniae K6 ATCC 700603.
For test [11], the system named is Salmonella enterica subsp. enterica serovar Typhimurium ATCC 700408.
Test [12] deals with Salmonella enterica subsp. enterica serovar Typhi S5.
Test [13] concerns Micrococcus luteus ATCC 10240.
In test [14] the test system is Neurospora crassa CBS 327-54.
The subject of test [15] is Fusarium haematococcum 160.2.2.
In test [16] the test system is Candida albicans ATCC 90112.
In test [17] the test system is Staphylococcus aureus ATCC 25923.
For test [18], the system named is Stenotrophomonas maltophilia ATCC 13637.
Test [19] relates to Pseudomonas aeruginosa ATCC 27853.
For test [20], the system named is Staphylococcus epidermidis.
For test [21], the system named is Escherichia coli ATCC 25922.
The test system of test [22] is Acinetobacter baumannii KCTC 2508.
In test [23] the test system is Escherichia coli ATCC 33694.
Test [24] relates to Bordetella bronchiseptica CUN 11844-99.
The test system of test [25] is Staphylococcus aureus ΔmprF.
For test [26], the system named is Brucella abortus 9.49 (per-).
For test [27], the system named is Pseudomonas aeruginosa CUN 4158-02.
Test [28] deals with Staphylococcus aureus ATCC 43300.
Test [29] concerns Staphylococcus aureus ΔmprFpRBsyn.
The test system of test [30] is Acinetobacter baumannii ATCC 19606.

In brackets after ≈: the same amount, converted by molar mass.

Turning to `CC[C@H](C)[C@H](NC(=O)[C@@H]1CCCN1C(=O)[C@H](CCCN=C(N)N)NC(=O)[C@@H]1CCCN1C(=O)[C@H](CCCN=C(N)N)NC(=O)[C@H](Cc1ccc(O)cc1)NC(=O)[C@H](CC(N)=O)NC(=O)[C@@H]1CCCN1C(=O)[C@H](CCCN=C(N)N)NC(=O)[C@@H]1CCCN1C(=O)[C@@H](N)CCCN=C(N)N)C(=O)N[C@@H](Cc1ccc(O)cc1)C(=O)N[C@@H](CCCN=C(N)N)C(=O)N1CCC[C@H]1C(N)=O` [RPRPNYRPRPIYRP], the MIC in the test with Bacillus megaterium Bm11 is 1.03 µM (≈ 1.9 µg/mL); in test [1] it was 1.06 µM (≈ 1.95 µg/mL); in test [2], 4.24 µM (≈ 7.8 µg/mL); in test [3], 4.24 µM (≈ 7.8 µg/mL); in test [4], 0.533 µM (≈ 0.98 µg/mL); against Escherichia coli D21 it was 2.12 µM (≈ 3.9 µg/mL). Further, the MIC in [5] turned out to be 4.24 µM (≈ 7.8 µg/mL); against Micrococcus luteus Ml11 it was 5.44 µM (≈ 9.99 µg/mL).

Regarding `CC[C@H](C)[C@H](NC(=O)[C@H](CCCN=C(N)N)NC(=O)[C@@H]1CCCN1C(=O)[C@H](Cc1cnc[nH]1)NC(=O)[C@@H]1CCCN1C(=O)[C@@H]1CCCN1C(=O)[C@H](CCCN=C(N)N)NC(=O)[C@@H]1CCCN1C(=O)[C@H](CCC(N)=O)NC(=O)[C@@H]1CCCN1C(=O)[C@H](CC(C)C)NC(=O)[C@H](Cc1ccc(O)cc1)NC(=O)[C@@H](NC(=O)[C@@H]1CCCN1C(=O)[C@H](CCCN=C(N)N)NC(=O)[C@H](CC(N)=O)NC(=O)[C@H](CC(N)=O)NC(=O)CN)C(C)C)C(N)=O` [GNNRPVYLPQPRPPHPRI], the MIC in test [6] is 1.23 µM (≈ 2.6 µg/mL); in test [7], 15.2 µM (≈ 32 µg/mL); with Escherichia coli DC2 it was 3.7 µM (≈ 7.81 µg/mL); with Escherichia coli D31, no less than 60.7 µM; in test [8], 1.85 µM (≈ 3.91 µg/mL); against Escherichia coli 45849 it was 7.59 µM (≈ 16 µg/mL). Besides, the MIC is 7.41 µM (≈ 15.6 µg/mL) in [9]; no less than 60.7 µM in [10]; 1.85 µM (≈ 3.91 µg/mL) against Escherichia coli BL21AI; 1.9 µM (≈ 4 µg/mL) in test [11]; 15.2 µM (≈ 32 µg/mL) in test [12]; 0.925 µM (≈ 1.95 µg/mL) in [13].

As for `CC[C@H](C)[C@H](NC(=O)[C@H](CCCN=C(N)N)NC(=O)[C@H](CCC(=O)O)NC(=O)[C@H](CC(=O)O)NC(=O)CNC(=O)[C@H](CCCN=C(N)N)NC(=O)[C@H](CC(C)C)NC(=O)[C@@H](N)[C@@H](C)O)C(=O)N[C@@H](CC(C)C)C(=O)N[C@@H](CO)C(=O)N[C@H](C(=O)N[C@@H](CC(C)C)C(=O)N[C@@H](CCCN=C(N)N)C(=O)N[C@@H](Cc1cnc[nH]1)C(=O)N[C@@H](CCC(N)=O)C(=O)N[C@@H](CC(N)=O)C(=O)N[C@@H](CC(C)C)C(=O)N[C@@H](CC(C)C)C(=O)N[C@@H](CCCCN)C(=O)N[C@@H](CCC(=O)O)C(=O)O)[C@@H](C)CC` [TLRGDERILSILRHQNLLKE], the MIC in test [14] was no less than 100 µM; in test [15], 30 µM (≈ 72.1 µg/mL).

Turning to `CC(C)C[C@H](NC(=O)CNC(=O)[C@H](CCCCN)NC(=O)[C@H](CC(C)C)NC(=O)[C@H](CC(N)=O)NC(=O)[C@@H](N)CC(C)C)C(=O)N[C@@H](Cc1ccccc1)C(=O)N[C@@H](CCCCN)C(=O)N[C@@H](CCCCN)C(=O)N[C@H](C(=O)N[C@@H](C)C(=O)N[C@@H](CO)C(=O)N[C@@H](CC(C)C)C(=O)N[C@@H](CC(C)C)C(=O)N[C@H](C(=O)O)[C@@H](C)O)C(C)C` [LNLKGLFKKVASLLT], the minimal inhibitory concentration (MIC) was 30 µM (≈ 49.4 µg/mL) in test [1]; 7.5 µM (≈ 12.3 µg/mL) in test [16]; greater than 60 µM in test [17]; 15 µM (≈ 24.7 µg/mL) in test [18]; 30 µM (≈ 49.4 µg/mL) in [19]; 30 µM (≈ 49.4 µg/mL) in test [20]. In addition, the MIC was 30 µM (≈ 49.4 µg/mL) against Streptococcus pyogenes, no less than 60 µM with Proteus mirabilis, 30 µM (≈ 49.4 µg/mL) in test [21] and 30 µM (≈ 49.4 µg/mL) in test [13].

`CC[C@H](C)[C@H](NC(=O)CNC(=O)[C@@H](NC(=O)[C@H](CCCCN)NC(=O)[C@H](CCCCN)NC(=O)[C@H](Cc1ccccc1)NC(=O)[C@H](CC(C)C)NC(=O)[C@H](CCCCN)NC(=O)[C@H](Cc1c[nH]c2ccccc12)NC(=O)[C@@H](N)CCCCN)[C@@H](C)CC)C(=O)NCC(=O)N[C@@H](C)C(=O)N[C@H](C(=O)N[C@@H](CC(C)C)C(=O)N[C@@H](CCCCN)C(=O)N[C@H](C(=O)N[C@@H](CC(C)C)C(=O)N[C@H](C(=O)N[C@H](C(=O)NCC(N)=O)[C@@H](C)O)[C@@H](C)O)C(C)C)C(C)C` [KWKLFKKIGIGAVLKVLTTG]: the minimum inhibitory concentration (MIC) in [1] stood at 1.1 µM (≈ 2.43 µg/mL); in test [22], 3.12 µM (≈ 6.86 µg/mL); in [23], 8.84 µM (≈ 19.4 µg/mL); against Acinetobacter baumannii, 4.42 µM (≈ 9.71 µg/mL).

`CC[C@H](C)[C@H](NC(=O)[C@H](CCCN=C(N)N)NC(=O)[C@H](CCCN=C(N)N)NC(=O)[C@H](CC(C)C)NC(=O)[C@H](Cc1ccccc1)NC(=O)[C@@H](NC(=O)[C@H](CCCN=C(N)N)NC(=O)[C@H](CCSC)NC(=O)[C@@H](NC(=O)[C@H](CCCCN)NC(=O)[C@H](CCCCN)NC(=O)[C@H](CO)NC(=O)[C@@H](NC(=O)[C@@H](N)CCCCN)[C@@H](C)CC)[C@@H](C)CC)[C@@H](C)O)C(=O)N[C@@H](CO)C(=O)N[C@@H](CCCCN)C(=O)N[C@@H](CC(=O)O)C(=O)N[C@H](C(=O)N[C@@H](CC(C)C)C(=O)N[C@H](C(=O)NCC(=O)N[C@@H](CCCCN)C(=O)N[C@@H](CCCCN)C(N)=O)[C@@H](C)O)[C@@H](C)CC` [KISKKIMRTFLRRISKDILTGKK]: the MIC against Yersinia pestis KIM pYV was no less than 46.4 µM; in [24], 0.362 µM (≈ 1 µg/mL); in [25] it was 1.45 µM (≈ 4 µg/mL); in test [26] it was 0.724 µM (≈ 2 µg/mL); in [27], 1.45 µM (≈ 4 µg/mL); in test [28] it was greater than 92.7 µM. For the same molecule, the MIC stood at 1.45 µM (≈ 4 µg/mL) in test [29], 1.45 µM (≈ 4 µg/mL) in [30], 1.45 µM (≈ 4 µg/mL) in test [21] and 11.6 µM (≈ 32 µg/mL) with Staphylococcus aureus.
